2 compounds from patent US6641802B2, “Amino acid compounds and photoprotecting compositions comprised thereof” (Societe L'Oreal S.A., priority 2000, dated 2003) can be followed below.

A short description of series [1]: UV absorption spectrum of the compound as a 5% dispersion in liquid petrolatum (total transmission and reflection, spectrophotometer with integrating sphere). It counts as physicochemical. As to conditions: 60 μm film. As to the method:
The UV absorption spectrum of the compound was measured as a 5% dispersion in liquid petrolatum. The total transmission and reflection of the dispersion was determined on a 60 μm film with a spectrophotometer equipped with an integrating sphere.
The UV absorption spectrum of the compound was measured as a 5% dispersion in liquid petrolatum. The total transmission and reflection of the dispersion was determined on a 60 μm film with a spectrophotometer equipped with an integrating sphere (8 trials).

`N[C@@H](CCCCNC(=O)C=Cc1ccccc1)C(=O)O` [Example 1, N^ε-cinnamoyl-L-lysine]: the melting point (in general, the temperature, or range, at which the solid turns liquid) was over 260 °C. Further, in series [1], the absorption maximum is on record as 260 nm, the “shoulder (first shoulder)” value worked out at 305 nm and the “optical density at 310 nm” value is 0.8.

In turn, `COc1ccc(C=CC(=O)NCCCCC(N)C(=O)O)cc1` (centres unmarked) [Example 2] gave a melting point of over 260 °C. In addition, in series [1], the absorption maximum was determined as 300 nm, the “shoulder (first shoulder)” value is on record as 320 nm and the “optical density at 310 nm” value is 0.4.
